Experiments:
[1] = target: low affinity Compound 1 site in 293 membranes; assay: Saturation binding of 3H-Compound 1 in 293 membranes, low affinity site; conditions: 0-150 nM 3H-Compound 1, 293 membranes, read-out: KD2
Procedure: (§1) The pharmacological profile of ^3H-5-(S)-(N′-((S)-(+)-2-Hydroxy-3-methylbutyryl)-L-alaninyl)amino-7-methyl-5,7-dihydro-6H-dibenz[b,d]azepin-6-one (Compound 1 from Example 30) has been studied in 293 membranes. There are two distinct binding components in the membrane preparations. Saturation binding analysis utilizing 0-50 pM and 0-150 nM ^3H-Compound 1 reveal two sites (KD1=52.7 pM [Bmax1=710 fmol/mg protein]; KD2=32.5 nM [Bmax2=34.4 pmol/mg protein]).
(§2) The compound of Example 28 (Compound 3) was also tested. The high affinity ^3H-N-[8-N′-((2-(R/S)-hydroxy-2-(3,5-difluorophenyl)-acetyl-L-alaninyl)-L-phenylglycine)-3,6-dioxaoctyl]-4,4-difluoro-5,7-dimethyl-4-bora-3α,4α-diaza-s-indacene-3-propionamide (Compound 3) binding site mediates the Aβ lowering activity of Compound 1, whereas the low affinity site is irrelevant to Aβ lowering. […] This wide separation in high and low affinity Ki's (7741.5; n=2) affords a wide window of concentrations of Compound 3 where binding of the compound is almost exclusively to the high affinity Compound 1 site.

[2] = target: high affinity Compound 1 binding site (Aβ lowering) in 293 membranes (Homo sapiens, UniProt P49768); assay: Saturation binding of 3H-Compound 1 in 293 membranes, high affinity site
Procedure: as §1, §2

[3] = tested on: low affinity Compound 1 site, membranes obtained from 293 cells; assay: Competition with 3H-Compound 1 binding to membranes from 293 cells, low affinity site; conditions: 293 cell membranes, n=2
Procedure: as §2

[4] = tested on: Aβ production in 293 cells; assay: Inhibition of Aβ production in 293 cells; type: cell-based; conditions: Homo sapiens, HEK293, whole cell
[5] = tested on: high affinity Compound 1 (Aβ lowering) site on SWE293 cells; assay: Flow cytometry labelling of SWE293 cells with Compound 3; type: cell-based
Procedure: SWE293 cells were successfully labelled with 5 nM of Compound 3 for flow cytometry analysis (excitation 488 nm, emission 510 (+/−10) nm) to give a four fold increase in fluorescence intensity over background unlabeled cells, consistent with the binding site being in relatively low abundance. At 5 nM concentration this compound only labels the high affinity Compound 1 (Aβ lowering) site. In the presence of 1 μM 5-(S)-[N′-((S)-3,5-Difluorophenyl-α-hydroxyacetyl)-L-alaninyl]amino-7-methyl-5,7-dihydro-6H-dibenz[b,d]azepin-6-one (Example 29), (which is sufficient to completely displace all specifically bound Compound of Example 28 at >>5 nM)), the signal was reduced by 20% (p<0.001), after background subtraction. Compound 3 is obviously a very hydrophobic molecule (log P>3), and the non displaceable signal is almost certainly due to non-specific partitioning into cell membranes.

log P = type: physicochemical

CC(C)[C@H](O)C(=O)N[C@@H](C)C(=O)NC1C(=O)N(C)c2ccccc2-c2ccccc21 (stereo partly drawn) [Compound 1, 5-(S)-(N′-((S)-(+)-2-Hydroxy-3-methylbutyryl)-L-alaninyl)amino-7-methyl-5,7-dihydro-6H-dibenz[b,d]azepin-6-one]
Kd [1]: 32.5 nM
Bmax1 [2]: 710 fmol/mg protein

Cc1cc(C)n2c1C=C1C=CC(CCC(=O)NCCOCCOCCNC(=O)C(NC(=O)C(C)NC(=O)C(O)c3cc(F)cc(F)c3)c3ccccc3)=[N+]1[B-]2(F)F (racemic) [Compound 3, N-[8-N′-((2-(R/S)-hydroxy-2-(3,5-difluorophenyl)-acetyl-L-alaninyl)-L-phenylglycinyl)amino-3,6-dioxaoctyl]-4,4-difluoro-5,7-dimethyl-4-bora-3α,4α-diaza-s-indacene-3-propionamide]
Ki [3]: 574 nM
IC50 [4]: 0.585 nM
increase in fluorescence intensity over background unlabeled cells ([5]; SWE293 cells labelled with 5 nM, flow cytometry, excitation 488 nm, emission 510 (+/−10) nm): four fold
logP (log P): > 3

C[C@H](NC(=O)[C@@H](O)c1cc(F)cc(F)c1)C(=O)N[C@@H]1C(=O)N(C)c2ccccc2-c2ccccc21 [Example 29, 5-(S)-[N′-((S)-3,5-Difluorophenyl-α-hydroxyacetyl)-L-alaninyl]amino-7-methyl-5,7-dihydro-6H-dibenz[b,d]azepin-6-one]
reduction of Compound 3 fluorescence signal ([5]; 1 μM competitor, SWE293 cells labelled with 5 nM Compound 3, after background subtraction, p<0.001): 20%

— US6486350B1, “Biological reagents and methods for determining the mechanism in the generation of β-amyloid peptide” (Elan Pharmaceuticals Inc., priority 1998, dated 2002)
